The values that follow come from patent publication US12465610B2, “Compounds and methods for the treatment of PKR-associated diseases” (Board of Regents, The University of Texas System, priority 2019, dated 2025).

For one data set, the target named is PKR (Homo sapiens, UniProt P19525). The data set is described as follows: ADP-Glo kinase assay, high-throughput enzymatic screening (Reaction Biology). It is filed as biochemical. In general terms: In ADP-Glo the light output rises with the ADP produced.
In the next data set the target is PI3Kb (Homo sapiens, UniProt P42338). The data set is described as above. It is filed as biochemical.
The next data set deals with PI3 Kg (Homo sapiens, UniProt P48736). Described as above. It is filed as biochemical.
For another data set, the target named is PIM3 (Homo sapiens, UniProt Q86V86). The data set can be described thus: High-throughput enzymatic screening. It is filed as biochemical.
The subject of the next data set is PI4K2A protein. The data set can be described thus: Thermal shift assay (differential scanning fluorimetry). Format: binding.
For data set [1], the system named is HeLa cells. The data set can be described thus: SRB cell viability assay. Format: cell-based, human. Conditions: 72 hours after treatment. The procedure: (§1) Anticancer effects of PKR-targeting compounds depend on PKR expression status: To identify compounds that can target lysosomes in PKR-positive cells or MVBs/exosomes in PKR-negative cells, the 10,000-compound ChemBridge library was screened for compounds with different effects on the growth of HeLa and HeLaPKRkd cells. […] SRB assays were next used to determine cell viability after treatment with Pac 1 or Pac 2.
(§2) Cell viability assays: For SRB assays, cells (2-8×10^3/well in 100 μL of culture medium) were seeded in 96-well flat-bottomed plates and treated the next day with compounds at the indicated concentrations. After the indicated treatments, cells were fixed with trichloroacetic acid. The protein was stained with SRB, and the optical density at 570 nm was determined. Relative cell viability was calculated by setting the viability rate of the control cells (exposed only to dimethyl sulfoxide) at 100% and comparing the viability of the treated cells with that of the controls. The experiments were performed at least three times for each cell line. The viability of leukemia cell lines was determined by using a 3-(4,5-dimethylthiazol-2-yl)-2,5-diphenyltetrazolium bromide assay.
Identification of PKR-associated compounds and cytotoxicity studies: The library of 10,000 compounds was screened for those with different effects on the growth of HeLa and HeLaPKRkd cells. […] Treated cells were observed under a microscope to detect morphologic changes, and their viability was determined using SRB assays 2 and 3 days after treatment. […]
For the SRB assay, cells (2-8×10^3/well in 100 μL of culture medium) were seeded in 96-well flat-bottomed plates and treated the next day with compounds at the indicated concentrations. […] The cells were stained using SRB, and the optical density at 570 nm was determined. Relative cell viability was determined by setting the viability of the control cells (exposed only to dimethyl sulfoxide) at 100% and comparing their viability with that of the treated cells. […]

In the next data set the test system is A549. The data set is described as follows: SRB cell viability assay. It is filed as cell-based, human. The settings on record: 72 hours after treatment. How it is done:
(§3) The effects of Pac 1 and Pac 2 were next examined on PKR protein expression in HeLa cells using Western blot analysis. […] No reduction in normal cell viability was observed after treatment with Pac 1 or Pac 2 (FIGS. 5F and G). […] Because most of the cancer cell lines that were tested were more sensitive to Pac 1 than to Pac 2, Pac 1 was further investigated.
as §2
(§4) For the SRB assay, cells (2-8×10^3/well in 100 μL of culture medium) were seeded in 96-well flat-bottomed plates and treated the next day with compounds at the indicated concentrations. After treatment for the indicated times, cells were fixed with trichloroacetic acid. The cells were stained using SRB, and the optical density at 570 nm was determined. Relative cell viability was determined by setting the viability of the control cells (exposed only to dimethyl sulfoxide) at 100% and comparing their viability with that of the treated cells. The experiments were performed at least three times for each cell line.

Another data set has as its system H1299. The data set is described as follows: SRB cell viability assay. Format: cell-based, human. The settings on record: 72 hours after treatment. The procedure: as §3, §2, §4
The next data set concerns breast cancer cell lines. The data set is described as follows: SRB cell viability assay. Conditions: 72 hours after treatment. Format: cell-based, human. The procedure:
as §3, §2, §4

Another data set deals with LOVO colon cancer cells. The data set is described as follows: SRB cell viability assay. Format: cell-based, human. Conditions: 72 hours after treatment.
Description: PKR and PI4K2A expression are associated with poor prognosis in cancer patients: PKR and PI4K2A are encoded by the EIF2AK2 and PI4K2A genes, respectively. […] It was also examined the expression of PKR using immunohistochemical staining of five normal skin and five breast tumor samples and observed that all of the breast tumor cells had high cytoplasmic PKR expression (FIG. 7C). However, all of the normal skin cells had low cytoplasmic PKR expression, and some of them had high nuclear PKR expression. […] Furthermore, the association between EIF2AK2 or PI4K2A gene expression and overall survival was evaluated in colorectal cancer patients using the TCGA data set. […]
as §2, with “After the indicated treatments, cells were fixed with trichloroacetic acid.” left out, “The experiments were performed at least three times for each cell line.” left out, “assay. […]” for “assay.”

Data set [2] concerns acidic vesicular organelles (lysosomes). The data set is described as follows: LysoTracker Red staining. It is filed as cell-based, human. Conditions: HeLa, H1299, and MDA-MB-231 cells, 5 μM, 72 hours. From the text:
Western blotting was next used to evaluate proteins known to be involved in AP-1/2/3 complexes in lung (H1299) and breast (MDA-MB-231) cancer cells after treatment with Pac 1 or Pac 2. […] AP-1 and AP-2 mediate protein sorting in the endosome, trans-Golgi network, and plasma membrane. […] The impact of Pac 1 was then investigated on lysosome function by staining cells with the acidophilic dye LysoTracker Red.
LysoTracker red staining, confocal microscopy, and tem: The acidophilic dye LysoTracker Red stains lysosomes. Cancer cells (1×10^5 cells/well) were grown on two-well chamber slides (Becton Dickinson Labware, Bedford, MA) to 70% confluence and then treated with PKR siRNA or control siRNA. Forty-eight hours later (when cells had grown to 70-80% confluence), the medium was replaced with medium containing 75 nM LysoTracker Red. The cells were incubated with LysoTracker Red for 1 hour and then rinsed one time with 1 mL of PBS. The cells were kept in PBS for microscopic imaging.

The subject of data set [3] is lysosomes and MVBs/exosomes. The data set can be described thus: Transmission electron microscopy (TEM) of treated cells. Format: cell-based, human.
The target of data set [4] is PKR coimmunoprecipitated with PI4K2A (Homo sapiens, UniProt Q9BTU6). Format: cell-based.
The test system of data set [5] is p-4EBP1, eEF2K, GSK3ab, IRS1 and Caveolin. The data set can be described thus: RPPA assay of 156 proteins. The settings on record: H1299 and A549 cells, 72 hours; Pac 1 5 and 10 μM, Pac 2 10 μM. It is filed as cell-based, human. The procedure:
The translation regulator eukaryotic […] 4EBP1 is phosphorylated by and is a substrate of PIM3 and PIM1. To further determine whether treatment with Pac 1 affects PIM3/1 downstream targets, the expression of 156 proteins in H1299 and A549 cells was analyzed after treatment with Pac 1 or Pac 2 using an RPPA assay. […] Others reported cross-talk of PP2A with PKR and 4EBP1 protein in cancer cells.

Data set [6] deals with HeLa cells. The data set is described as follows: Microscopic analysis of morphologic changes. It is filed as cell-based, human.
Description: as §1
Identification of PKR-associated compounds and cytotoxicity studies: The library of 10,000 compounds was screened for those with different effects on the growth of HeLa and HeLaPKRkd cells. For this screening, both HeLa and HeLaPKRkd cells were seeded in 96-well plates in parallel and treated with each compound at a final concentration of 5 μg/mL. Cells treated with dimethyl sulfoxide (final concentration, 1%) were used as controls. Treated cells were observed under a microscope to detect morphologic changes, and their viability was determined using SRB assays 2 and 3 days after treatment. The compounds initially observed to have different effects on HeLa and HeLaPKRkd cells were subjected to two confirmatory screenings.

Another data set is described as follows: Toxicity in mice. The settings on record: 50 mg/kg intravenously daily for 7 days.

Chain of PI3 Kg (P48736 whole entry): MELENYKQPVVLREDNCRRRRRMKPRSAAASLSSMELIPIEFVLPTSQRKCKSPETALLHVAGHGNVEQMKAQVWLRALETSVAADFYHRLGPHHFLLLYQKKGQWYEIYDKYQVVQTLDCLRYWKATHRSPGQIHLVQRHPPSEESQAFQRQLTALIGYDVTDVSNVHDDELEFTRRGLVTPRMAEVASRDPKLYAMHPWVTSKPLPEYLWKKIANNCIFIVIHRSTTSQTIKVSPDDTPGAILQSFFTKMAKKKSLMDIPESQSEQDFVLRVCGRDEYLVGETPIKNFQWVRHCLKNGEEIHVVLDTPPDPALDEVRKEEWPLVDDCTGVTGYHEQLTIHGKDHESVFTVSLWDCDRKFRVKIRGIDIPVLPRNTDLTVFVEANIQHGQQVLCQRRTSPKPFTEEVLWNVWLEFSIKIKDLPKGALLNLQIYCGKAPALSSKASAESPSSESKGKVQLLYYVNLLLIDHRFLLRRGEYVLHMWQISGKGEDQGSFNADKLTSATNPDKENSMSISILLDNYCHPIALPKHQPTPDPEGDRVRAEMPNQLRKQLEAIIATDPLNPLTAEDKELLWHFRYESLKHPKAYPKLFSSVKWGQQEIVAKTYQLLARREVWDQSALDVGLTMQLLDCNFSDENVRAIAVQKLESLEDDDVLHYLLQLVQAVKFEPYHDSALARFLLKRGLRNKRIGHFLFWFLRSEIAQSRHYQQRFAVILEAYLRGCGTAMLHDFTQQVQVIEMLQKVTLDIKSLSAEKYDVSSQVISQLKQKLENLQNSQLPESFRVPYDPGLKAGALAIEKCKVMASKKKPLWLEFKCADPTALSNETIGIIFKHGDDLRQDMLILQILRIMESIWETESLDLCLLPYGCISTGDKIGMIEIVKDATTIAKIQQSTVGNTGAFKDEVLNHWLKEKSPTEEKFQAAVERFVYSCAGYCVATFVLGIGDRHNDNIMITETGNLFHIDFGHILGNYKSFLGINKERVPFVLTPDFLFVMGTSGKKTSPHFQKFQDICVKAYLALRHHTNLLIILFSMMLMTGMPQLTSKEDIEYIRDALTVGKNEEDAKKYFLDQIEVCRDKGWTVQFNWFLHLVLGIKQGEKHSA
Chain of PI3Kb (P42338 whole entry): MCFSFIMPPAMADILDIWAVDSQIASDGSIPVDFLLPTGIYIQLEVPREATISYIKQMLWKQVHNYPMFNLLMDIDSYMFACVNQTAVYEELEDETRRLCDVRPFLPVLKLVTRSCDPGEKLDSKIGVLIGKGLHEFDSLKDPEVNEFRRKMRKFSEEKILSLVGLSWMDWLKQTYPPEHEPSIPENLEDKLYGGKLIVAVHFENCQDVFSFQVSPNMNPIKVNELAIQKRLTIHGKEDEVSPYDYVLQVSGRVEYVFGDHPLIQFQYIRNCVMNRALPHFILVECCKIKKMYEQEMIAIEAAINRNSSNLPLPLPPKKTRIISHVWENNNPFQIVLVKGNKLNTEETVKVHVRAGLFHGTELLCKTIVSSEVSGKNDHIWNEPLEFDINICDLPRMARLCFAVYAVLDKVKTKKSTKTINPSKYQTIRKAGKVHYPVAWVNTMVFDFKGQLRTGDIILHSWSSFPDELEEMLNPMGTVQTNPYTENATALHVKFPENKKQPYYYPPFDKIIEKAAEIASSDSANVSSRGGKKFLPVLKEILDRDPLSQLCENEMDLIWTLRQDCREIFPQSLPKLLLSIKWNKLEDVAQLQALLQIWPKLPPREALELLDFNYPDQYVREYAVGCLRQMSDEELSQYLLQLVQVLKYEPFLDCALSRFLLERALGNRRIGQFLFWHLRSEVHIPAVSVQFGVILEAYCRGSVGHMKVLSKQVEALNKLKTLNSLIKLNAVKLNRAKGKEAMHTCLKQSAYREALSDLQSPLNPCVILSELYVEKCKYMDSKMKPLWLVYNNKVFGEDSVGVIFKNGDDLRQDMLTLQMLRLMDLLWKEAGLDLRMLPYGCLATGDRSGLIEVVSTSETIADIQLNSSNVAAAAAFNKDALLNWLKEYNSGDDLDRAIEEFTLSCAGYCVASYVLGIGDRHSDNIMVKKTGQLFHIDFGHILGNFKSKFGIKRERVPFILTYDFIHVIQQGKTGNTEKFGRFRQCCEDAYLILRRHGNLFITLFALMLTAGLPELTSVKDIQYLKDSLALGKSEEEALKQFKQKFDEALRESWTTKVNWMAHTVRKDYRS
Chain of PI3Kb (P27986 whole entry partner): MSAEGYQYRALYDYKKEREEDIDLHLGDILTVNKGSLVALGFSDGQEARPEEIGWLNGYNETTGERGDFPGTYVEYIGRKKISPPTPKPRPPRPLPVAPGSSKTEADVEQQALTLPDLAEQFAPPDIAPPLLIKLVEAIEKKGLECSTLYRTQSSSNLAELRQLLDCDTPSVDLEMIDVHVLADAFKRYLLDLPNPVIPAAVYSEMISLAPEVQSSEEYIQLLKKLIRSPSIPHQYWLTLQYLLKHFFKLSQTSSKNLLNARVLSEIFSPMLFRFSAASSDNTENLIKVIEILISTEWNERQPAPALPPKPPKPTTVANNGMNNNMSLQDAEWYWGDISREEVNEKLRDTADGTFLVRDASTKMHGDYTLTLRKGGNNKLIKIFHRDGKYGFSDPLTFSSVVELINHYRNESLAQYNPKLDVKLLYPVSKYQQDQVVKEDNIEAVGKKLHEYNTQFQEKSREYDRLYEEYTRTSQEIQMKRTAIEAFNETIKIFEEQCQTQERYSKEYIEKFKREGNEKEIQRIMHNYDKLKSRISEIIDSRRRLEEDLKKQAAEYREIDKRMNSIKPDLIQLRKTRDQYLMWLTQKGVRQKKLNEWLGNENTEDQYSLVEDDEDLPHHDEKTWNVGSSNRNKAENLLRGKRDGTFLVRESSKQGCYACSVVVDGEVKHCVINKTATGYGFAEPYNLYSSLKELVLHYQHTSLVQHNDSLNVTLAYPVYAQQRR
Chain of PKR coimmunoprecipitated with PI4K2A (Q9BTU6 whole entry, looked up): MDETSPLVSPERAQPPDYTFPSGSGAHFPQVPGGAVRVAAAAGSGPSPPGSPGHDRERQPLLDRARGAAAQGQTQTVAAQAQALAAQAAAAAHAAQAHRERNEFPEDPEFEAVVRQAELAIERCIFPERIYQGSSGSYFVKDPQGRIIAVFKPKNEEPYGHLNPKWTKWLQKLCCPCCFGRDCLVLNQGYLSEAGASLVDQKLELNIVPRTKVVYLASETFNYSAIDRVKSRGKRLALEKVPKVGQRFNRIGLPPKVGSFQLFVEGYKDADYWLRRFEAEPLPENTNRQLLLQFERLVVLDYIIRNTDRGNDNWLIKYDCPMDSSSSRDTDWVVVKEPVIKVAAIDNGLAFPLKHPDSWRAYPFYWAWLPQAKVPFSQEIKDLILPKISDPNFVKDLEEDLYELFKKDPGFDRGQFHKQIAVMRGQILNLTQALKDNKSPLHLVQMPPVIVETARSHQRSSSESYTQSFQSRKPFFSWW
Chain of PKR (P19525 whole entry): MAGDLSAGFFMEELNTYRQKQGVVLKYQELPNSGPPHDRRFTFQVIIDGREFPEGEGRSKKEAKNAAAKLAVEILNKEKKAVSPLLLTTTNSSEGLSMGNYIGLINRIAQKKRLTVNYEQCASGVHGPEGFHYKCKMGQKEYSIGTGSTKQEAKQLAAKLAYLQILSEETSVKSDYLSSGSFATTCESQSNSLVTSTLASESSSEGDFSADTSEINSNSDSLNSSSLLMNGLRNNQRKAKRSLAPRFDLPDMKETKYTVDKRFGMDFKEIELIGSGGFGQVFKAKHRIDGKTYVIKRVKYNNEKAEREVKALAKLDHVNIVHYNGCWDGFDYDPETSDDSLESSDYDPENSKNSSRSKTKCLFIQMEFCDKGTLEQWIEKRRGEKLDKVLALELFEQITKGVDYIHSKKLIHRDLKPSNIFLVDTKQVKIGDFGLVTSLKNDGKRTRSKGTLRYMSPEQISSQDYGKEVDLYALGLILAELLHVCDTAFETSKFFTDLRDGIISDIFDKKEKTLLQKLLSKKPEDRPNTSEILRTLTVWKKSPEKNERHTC

For `O=C(N/N=C\c1c(O)ccc2ccccc12)c1cccc2cc[nH]c12` [Pac 1, N′—[(Z)-(2-Hydroxy-1-naphthyl)methylene]-1H-indole-7-carbohydrazide], the “inhibition of PKR kinase activity” value on PKR is reported as “did not inhibit”. In addition, the “inhibition of kinase activity” value against PI3Kb and at PI3 Kg was “not other kinases” throughout. Also, the “inhibition of PIM3/1 activity” value against PIM3 is given as “markedly inhibited”. Further, in the data set with PI4K2A protein, the “binding to PI4K2A and change of melting temperature” value was “binds to PI4K2A and causes a decrease in the melting temperature”. For the same compound, the “viability of HeLa cells” value in the data set on HeLa cells [1] is given as “suppressed more effectively by Pac 1 than by Pac 2”. In the data set with A549, the “sensitivity (viability) of A549 cells” value was “more sensitive to treatment with Pac 1 than that with Pac 2”. Also, in the data set with H1299, the “sensitivity (viability) of H1299 cells” value is on record as “more sensitive to treatment with Pac 1 than that with Pac 2”. The “growth of breast cancer cell lines” value with breast cancer cell lines is on record as “inhibited the growth”. For the same compound, the “growth of LOVO colon cancer cells” value in the data set with LOVO colon cancer cells was “inhibited the growth”. For the same compound, in data set [2], the “numbers of acidic vesicular organelles” value is reported as “substantially decreased”. Besides, the “lysosomes by TEM” value in data set [3] (HeLa cells, 5 μM) is recorded as “destruction of lysosomes”. Also, the “lysosomes and MVBs/exosomes by TEM” value in [3] (HeLaPKRkd cells) is “a lack of lysosomes but enrichment of MVBs/exosomes”. For the same compound, the “amount of PKR coimmunoprecipitated with PI4K2A” value in data set [4] was “decreased to undetectable levels”. Further, in data set [5], the “levels of p-4EBP1 (S65, T37, and T70), eEF2K, GSK3ab, IRS1 and Caveolin” value was “significantly inhibited”. Moreover, the “growth of HeLa cells by microscopy” value in the data set on HeLa cells [6] is on record as “suppressed the growth of HeLa cells more effectively than did treatment with Pac 2”. Moreover, in the data set “Toxicity in mice”, the “blood chemistry: aspartate aminotransferase, SGOT, SGPT, alkaline phosphatase, creatine kinase, lactate dehydrogenase levels” value was “normal”. The “histopathologic examination of major organs” value in “Toxicity in mice” (heart, lungs, liver, kidneys, pancreas, spleen) was “no significant changes in any major organs”.
